Measurements published in US6043217A, “Amide derivative of amythiamicin” (Zaidan Hojin Biseibutsu Kagaku Kenyu Kai, priority 1996, dated 2000).

Experiments:
Type in all cases: cell-based
Proteus vulgaris OX 19 = experiment: MIC, standard serial dilution method; settings: Muller-Hinton agar medium, 37° C.
[1] = system: Staphylococcus aureus Smith; experiment: MIC, standard serial dilution method; settings: Muller-Hinton agar medium, 37° C.
Bacillus anthracis = settings: Muller-Hinton agar medium, 37° C.
Escherichia coli NIHJ = experiment: MIC, standard serial dilution method; settings: Muller-Hinton agar medium, 37° C.
Candida albicans 3147 = experiment: MIC, standard serial dilution method; settings: Muller-Hinton agar medium, 37° C.
[2] = system: Micrococcus luteus FDA 16; experiment: MIC, standard serial dilution method; settings: Muller-Hinton agar medium, 37° C.
[3] = system: Bacillus subtilis NRRL B-558; experiment: MIC, standard serial dilution method; settings: Muller-Hinton agar medium, 37° C.
[4] = system: Shigella dysenteria JS 11910; experiment: MIC, standard serial dilution method; settings: Muller-Hinton agar medium, 37° C.
[5] = system: Pseudomonas aeruginosa A3; experiment: MIC, standard serial dilution method; settings: Muller-Hinton agar medium, 37° C.
[6] = system: Micrococcus luteus PIC 1001; experiment: MIC, standard serial dilution method; settings: Muller-Hinton agar medium, 37° C.
[7] = system: Pseudomonas aeruginosa GN315; experiment: MIC, standard serial dilution method; settings: Muller-Hinton agar medium, 37° C.
[8] = system: Staphylococcus aureus No. 17 (MRSA); experiment: MIC, standard serial dilution method; settings: Muller-Hinton agar medium, 37° C.
[9] = system: Micrococcus luteus IFO 3333; experiment: MIC, standard serial dilution method; settings: Muller-Hinton agar medium, 37° C.
[10] = system: Staphylococcus aureus FDA 209P; experiment: MIC, standard serial dilution method; settings: Muller-Hinton agar medium, 37° C.
[11] = system: Bacillus cereus ATCC 10702; experiment: MIC, standard serial dilution method; settings: Muller-Hinton agar medium, 37° C.
Escherichia coli K-12 = experiment: MIC, standard serial dilution method; settings: Muller-Hinton agar medium, 37° C.
[12] = system: Salmonella enteritidis 1891; experiment: MIC, standard serial dilution method; settings: Muller-Hinton agar medium, 37° C.
[13] = system: Corynebacterium bovis 1810; experiment: MIC, standard serial dilution method; settings: Muller-Hinton agar medium, 37° C.
[14] = system: Proteus mirabilis IFM OM-9; experiment: MIC, standard serial dilution method; settings: Muller-Hinton agar medium, 37° C.
Salmonella typhi T-63 = experiment: MIC, standard serial dilution method; settings: Muller-Hinton agar medium, 37° C.
[15] = system: Staphylococcus aureus MS 16526; experiment: MIC, standard serial dilution method; settings: Muller-Hinton agar medium, 37° C.
[16] = system: Bacillus subtilis PCI 219; experiment: MIC, standard serial dilution method; settings: Muller-Hinton agar medium, 37° C.
[17] = system: Shigella clexnerl JS 11749; experiment: MIC, standard serial dilution method; settings: Muller-Hinton agar medium, 37° C.
Protocol: (§1) The antibacterial activities of the amythiamicin amide derivative of the general formula (I) according to this invention are now concretely described. Compounds No. 1 to No. 11 according to this invention, which were respectively prepared in Examples 1 to 11 hereinafter given, were tested as the test compounds for their minimum inhibitory concentrations (MIC.) (μg/ml) against growth of a variety of test microorganisms by a standard serial dilution method. In the tests, the incubation medium used was Muller-Hinton agar medium and the incubation temperature was 37° C. The test results are shown as antibacterial spectra in the following Tables 2 and 3.

[18] = system: Escherichia coli K-12 ML 1692; experiment: MIC, standard serial dilution method; settings: Muller-Hinton agar medium, 37° C.
Protocol: as §1

Shigella sonnei JS 11746 = experiment: MIC, standard serial dilution method; settings: Muller-Hinton agar medium, 37° C.
Protocol: as §1

[19] = system: Klebsiella pneumonia PCI 602; experiment: MIC, standard serial dilution method; settings: Klebsiella pneumonia PCI 602 (Table 2); Muller-Hinton agar medium, 37° C.
Escherichia coli BEM 11 = experiment: MIC, standard serial dilution method; settings: Muller-Hinton agar medium, 37° C.
[20] = system: Staphylococcus aureus MS 9610; experiment: MIC, standard serial dilution method; settings: Muller-Hinton agar medium, 37° C.
[21] = system: Escherichia coli BEM 1121; experiment: MIC, standard serial dilution method; settings: Muller-Hinton agar medium, 37° C.
[22] = system: Providencia rettgeri GN 466; experiment: MIC, standard serial dilution method; settings: Muller-Hinton agar medium, 37° C.
[23] = system: Staphylococcus aureus No. 5 (MRSA); experiment: MIC, standard serial dilution method; settings: Muller-Hinton agar medium, 37° C.
[24] = system: Providencia rettgeri GN 311; experiment: MIC, standard serial dilution method; settings: Muller-Hinton agar medium, 37° C.
[25] = system: Staphylococcus aureus TY-0428; experiment: MIC, standard serial dilution method; settings: Muller-Hinton agar medium, 37° C.
Escherichia coli BE 1186 = experiment: MIC, standard serial dilution method; settings: Muller-Hinton agar medium, 37° C.
Serratia marcescens = experiment: MIC, standard serial dilution method; settings: Muller-Hinton agar medium, 37° C.

| SMILES | Minimum growth inhibitory concentrations (MIC.) (Proteus vulgaris OX 19) [µg/mL] | Minimum growth inhibitory concentrations (MIC.) [1] [µg/mL] | Minimum growth inhibitory concentrations (MIC.) (Bacillus anthracis) [µg/mL] | Minimum growth inhibitory concentrations (MIC.) (Escherichia coli NIHJ) [µg/mL] | Minimum growth inhibitory concentrations (MIC.) (Candida albicans 3147) [µg/mL] | Minimum growth inhibitory concentrations (MIC.) [2] [µg/mL] | Minimum growth inhibitory concentrations (MIC.) [3] [µg/mL] | Minimum growth inhibitory concentrations (MIC.) [4] [µg/mL] | Minimum growth inhibitory concentrations (MIC.) [5] [µg/mL] | Minimum growth inhibitory concentrations (MIC.) [6] [µg/mL] | Minimum growth inhibitory concentrations (MIC.) [7] [µg/mL] | Minimum growth inhibitory concentrations (MIC.) [8] [µg/mL] | Minimum growth inhibitory concentrations (MIC.) [9] [µg/mL] | Minimum growth inhibitory concentrations (MIC.) [10] [µg/mL] | Minimum growth inhibitory concentrations (MIC.) [11] [µg/mL] | Minimum growth inhibitory concentrations (MIC.) (Escherichia coli K-12) [µg/mL] | Minimum growth inhibitory concentrations (MIC.) [12] [µg/mL] | Minimum growth inhibitory concentrations (MIC.) [13] [µg/mL] | Minimum growth inhibitory concentrations (MIC.) [14] [µg/mL] | Minimum growth inhibitory concentrations (MIC.) (Salmonella typhi T-63) [µg/mL] | also measured |
| --- | --- | --- | --- | --- | --- | --- | --- | --- | --- | --- | --- | --- | --- | --- | --- | --- | --- | --- | --- | --- | --- |
| CNC(=O)CC1NC(=O)c2csc(n2)-c2ccc(-c3nc(C(=O)NCCCCCC(=O)OC)cs3)nc2-c2csc(n2)-c2csc(n2)C(C(C)C)NC(=O)CNC(=O)c2csc(n2)C(C(C)C)NC(=O)c2nc1sc2C (stereo not shown) [Compound No. 1] | > 100 | > 100 | 0.98 | > 100 | > 100 | > 100 | > 100 | > 100 | > 50 | 3.13 | > 100 | > 100 | > 100 | 50 | 3.13 | > 100 | > 100 | > 100 | > 100 | > 100 | Minimum growth inhibitory concentrations (MIC.) [15]: > 100 µg/mL; Minimum growth inhibitory concentrations (MIC.) [16]: > 100 µg/mL; Minimum growth inhibitory concentrations (MIC.) [17]: > 100 µg/mL; Minimum growth inhibitory concentrations (MIC.) [18]: > 100 µg/mL; Minimum growth inhibitory concentrations (MIC.) (Shigella sonnei JS 11746): > 100 µg/mL; Minimum growth inhibitory concentrations (MIC.) [19]: > 100 µg/mL; Minimum growth inhibitory concentrations (MIC.) (Escherichia coli BEM 11): > 100 µg/mL; Minimum growth inhibitory concentrations (MIC.) [20]: > 100 µg/mL; Minimum growth inhibitory concentrations (MIC.) [21]: > 100 µg/mL; Minimum growth inhibitory concentrations (MIC.) [22]: > 100 µg/mL; Minimum growth inhibitory concentrations (MIC.) [23]: > 100 µg/mL; Minimum growth inhibitory concentrations (MIC.) [24]: > 100 µg/mL; Minimum growth inhibitory concentrations (MIC.) [25]: > 100 µg/mL; Minimum growth inhibitory concentrations (MIC.) (Escherichia coli BE 1186): > 100 µg/mL; Minimum growth inhibitory concentrations (MIC.) (Serratia marcescens): > 100 µg/mL |
| CNC(=O)CC1NC(=O)c2csc(n2)-c2ccc(-c3nc(C(=O)NCCCCCC(=O)O)cs3)nc2-c2csc(n2)-c2csc(n2)C(C(C)C)NC(=O)CNC(=O)c2csc(n2)C(C(C)C)NC(=O)c2nc1sc2C (stereo not shown) [Compound No. 2] | > 100 | 0.1 | < 0.03 | > 100 | > 100 | 0.39 | 1.56 | 3.13 | > 50 | 0.1 | > 100 | 0.2 | 0.39 | 0.1 | 0.1 | > 100 | 6.25 | 0.31 | > 100 | > 100 | Minimum growth inhibitory concentrations (MIC.) [15]: 0.2 µg/mL; Minimum growth inhibitory concentrations (MIC.) [16]: 0.2 µg/mL; Minimum growth inhibitory concentrations (MIC.) [17]: > 100 µg/mL; Minimum growth inhibitory concentrations (MIC.) [18]: > 100 µg/mL; Minimum growth inhibitory concentrations (MIC.) (Shigella sonnei JS 11746): > 100 µg/mL; Minimum growth inhibitory concentrations (MIC.) [19]: > 100 µg/mL; Minimum growth inhibitory concentrations (MIC.) (Escherichia coli BEM 11): > 100 µg/mL; Minimum growth inhibitory concentrations (MIC.) [20]: 0.2 µg/mL; Minimum growth inhibitory concentrations (MIC.) [21]: > 100 µg/mL; Minimum growth inhibitory concentrations (MIC.) [22]: > 100 µg/mL; Minimum growth inhibitory concentrations (MIC.) [23]: 0.2 µg/mL; Minimum growth inhibitory concentrations (MIC.) [24]: > 100 µg/mL; Minimum growth inhibitory concentrations (MIC.) [25]: 0.2 µg/mL; Minimum growth inhibitory concentrations (MIC.) (Escherichia coli BE 1186): > 100 µg/mL; Minimum growth inhibitory concentrations (MIC.) (Serratia marcescens): > 100 µg/mL |
